Reference: US20060069132A1, “Azolecarboxamide herbicides” (priority 2004, published 2006)

Columns and labels:
[1] = system: kochia; experiment: Test C pre-/postemergence herbicide test; format: in vivo, Kochia scoparia; settings: for Kochia plant response rating: Preemergence, 500 g ai/ha
How it was run: (§1)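 Seeds were planted and sprayed preemergence with test chemicals in a non-phytotoxic solvent mixture containing surfactant; postemergence treatments went onto plants 2 to 18 cm tall (1- to 4-leaf stage). After 12 to 14 days in a greenhouse, injury was rated visually against untreated controls on a 0–100 scale.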

[2] = system: chickweed; experiment: Test C postemergence herbicide test; format: in vivo, Stellaria media
Method: At the same time, plants selected from these crop and weed species and also winter barley (Hordeum vulgare L.), blackgrass (Alopecurus myosuroides Huds.), canarygrass (Phalaris minor Retz.), chickweed (Stellaria media (L.) Vill.), downy bromegrass (Bromus tectorum L.), green foxtail (Setaria viridis (L.) Beauv.), Italian ryegrass (Lolium multiflorum Lam.), wheat (Triticum aestivum L.), wild oat (Avenafatua L.) and windgrass (Apera spica-venti (L.) Beauv.) were treated with postemergence applications of some of the test chemicals formulated in the same manner. Plants ranged in height from 2 to 18 cm (1- to 4-leaf stage) for postemergence treatments. Plant species in the flooded paddy test consisted of rice (Oryza sativa), smallflower umbrella sedge (Cyperus difformis L.), ducksalad (Heteranthera limosa (Sw.) Willd.) and barnyardgrass (Echinochloa crus-galli (L.) Beauv.) grown to the 2-leaf stage for testing. Treated plants and controls were maintained in a greenhouse for 12 to 14 days, after which time all species were compared to controls and visually evaluated. Plant response ratings, summarized in Table C, are based on a scale of 0 to 100 where 0 is no effect and 100 is complete control. A dash (-) response means no test result.

[3] = system: goosegrass; experiment: Test C pre-/postemergence herbicide test; format: in vivo, Eleusine indica; settings: for Goosegrass plant response rating: Preemergence, 500 g ai/ha
How it was run: as §1

[4] = system: large crabgrass; experiment: Test C pre-/postemergence herbicide test; format: in vivo, Digitaria sanguinalis; settings: for Crabgrass, Large plant response rating: Preemergence, 500 g ai/ha
How it was run: as §1

[5] = system: velvetleaf; experiment: Test C pre-/postemergence herbicide test; format: in vivo, Abutilon theophrasti; settings: for Velvetleaf plant response rating: Preemergence, 500 g ai/ha, scale 0 to 100, 0 no effect, 100 complete control
How it was run: as §1

[6] = system: pigweed; experiment: Test C pre-/postemergence herbicide test; format: in vivo, Amaranthus retroflexus; settings: for Pigweed plant response rating: Preemergence, 500 g ai/ha, scale 0 to 100, 0 no effect, 100 complete control
How it was run: as §1

[7] = system: common ragweed; experiment: Test C pre-/postemergence herbicide test; format: in vivo, Ambrosia elatior; parameters: key to Plant response rating, Ragweed: 0 = no effect, 100 = complete control; settings: for Ragweed plant response rating: Preemergence, 500 g ai/ha, scale 0 to 100, 0 no effect, 100 complete control
How it was run: as §1

[8] = system: giant foxtail; experiment: Test A pre-/postemergence herbicide test; format: in vivo, Setaria faberi
How it was run: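 Seeds sown in sandy loam received a preemergence directed soil spray of compound in non-phytotoxic solvent with surfactant; postemergence plants (2–10 cm, one- to two-leaf stage) were sprayed to runoff at the same time. After ~10 days in greenhouse, injury was rated visually versus untreated controls (0 = no effect, 100 = complete control).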

[9] = system: barnyardgrass; experiment: Test C flooded paddy test; format: in vivo, Echinochloa crus-galli; settings: for Plant response rating, Barnyardgrass: 500 g ai/ha, visual rating after 12 to 14 days
How it was run: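 Plants were grown to the 1- to 4-leaf stage (2–18 cm) and then treated postemergence, or grown to the 2-leaf stage for the flooded paddy test. They were held in a greenhouse for 12 to 14 days and then scored by eye against controls, where 0 is no effect and 100 is complete control.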

[10] = system: rice; experiment: Test B pre-/postemergence herbicide test; format: in vivo, Oryza sativa; settings: preemergence
How it was run: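 Evaluation is visual, comparing treated with control plants on a scale where 0 means no effect and 100 means full control. Treatments were preemergence, or postemergence on seedlings 2–18 cm tall, and held 13–15 days in the greenhouse.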

[11] = 62 g ai/ha, preemergence, scale 0 to 100
[12] = 250 g ai/ha, scale 0-100, preemergence
[13] = Postemergence, 250 g ai/ha, scale 0 to 100, 0 no effect, 100 complete control
[14] = postemergence, 125 g ai/ha, scale 0 to 100
[15] = postemergence, 62 g ai/ha, scale 0 to 100
[16] = 125 g ai/ha, scale 0 (no effect) to 100 (complete control), visual, 12 to 14 days, preemergence
[17] = scale 0 to 100, 0 no effect, 100 complete control
[18] = 250 g ai/ha, scale 0 to 100 (0 no effect, 100 complete control), visual, 12 to 14 days, preemergence
[19] = Postemergence, 500 g ai/ha, 0 to 100 scale, 0 no effect, 100 complete control
[20] = Postemergence, 2000 g ai/ha, 0 to 100 scale, 0 no effect, 100 complete control
[21] = Preemergence, 500 g ai/ha, visual rating, 0 to 100 scale (0 no effect, 100 complete control)
[22] = Preemergence, 2000 g ai/ha, 0 to 100 scale, 0 no effect, 100 complete control
[23] = 62 g ai/ha, scale 0 to 100 (0 no effect, 100 complete control)
[24] = 125 g ai/ha, scale of 0 to 100, 0 is no effect, 100 is complete control
[25] = 250 g ai/ha, scale of 0 to 100, 0 is no effect, 100 is complete control
[26] = scale 0 to 100 (0 no effect, 100 complete control)
[27] = 125 g ai/ha, 0 to 100 scale, 0 is no effect, 100 is complete control

## CCOC(=O)c1cccc(NC(=O)c2nn(C(C)(C)CC)nc2CC)c1 [Compound 375]
[1]; [11]
  Plant response rating, Kochia: 80
[1]; 125 g ai/ha, preemergence
  Plant response rating (0 = no effect, 100 = complete control), Kochia: 100
[1]; [12]
  Plant response rating, Kochia: 100
[1]; [13]
  Plant response rating, Kochia: 90
[1]; [14]
  Plant response rating, Kochia: 85
[1]; [15]
  Plant response rating, Kochia: 70
[2]; [13]
  Plant response rating, Chickweed: 100
[2]; [14]
  Plant response rating, Chickweed: 100
[2]; postemergence, 31 g ai/ha, scale 0 to 100
  Plant response rating, Chickweed: 100
[2]; [15]
  Plant response rating, Chickweed: 100
[3]; [11]
  Plant response rating, Goosegrass: 60
[3]; 125 g ai/ha, preemergence
  Plant response rating (0 = no effect, 100 = complete control), Goosegrass: 100
[3]; [12]
  Plant response rating, Goosegrass: 100
[3]; [13]
  Plant response rating, Goosegrass: 50
[3]; [14]
  Plant response rating, Goosegrass: 15
[3]; [15]
  Plant response rating, Goosegrass: 15
[4]; [11]
  Plant response rating, Crabgrass, Large: 60
[4]; 125 g ai/ha, preemergence
  Plant response rating (0 = no effect, 100 = complete control), Crabgrass, Large: 70
[4]; [12]
  Plant response rating, Crabgrass, Large: 100
[4]; [13]
  Plant response rating, Crabgrass, Large: 20
[4]; [14]
  Plant response rating, Crabgrass, Large: 20
[4]; [15]
  Plant response rating, Crabgrass, Large: 5
[5]; [11]
  Plant response rating, Velvetleaf: 0
[5]; 125 g ai/ha, preemergence
  Plant response rating (0 = no effect, 100 = complete control), Velvetleaf: 30
[5]; [12]
  Plant response rating, Velvetleaf: 80
[5]; [14]
  Plant response rating, Velvetleaf: 85
[5]; [15]
  Plant response rating, Velvetleaf: 60
[6]; [11]
  Plant response rating, Pigweed: 50
[6]; 125 g ai/ha, preemergence
  Plant response rating (0 = no effect, 100 = complete control), Pigweed: 50
[6]; [12]
  Plant response rating, Pigweed: 100
[6]; [15]
  Plant response rating, Pigweed: 80
[7]; [11]
  Plant response rating, Ragweed: 0
[7]; 125 g ai/ha, preemergence
  Plant response rating (0 = no effect, 100 = complete control), Ragweed: 5
[7]; [12]
  Plant response rating, Ragweed: 10
[7]; [14]
  Plant response rating, Ragweed: 10
[7]; [15]
  Plant response rating, Ragweed: 5

## CCn1nc(C(C)(C)C)cc1C(=O)Nc1cccc2c1CCN(C1CC1)C2=O [Compound 64]
[1]; 62 g ai/ha, preemergence
  Plant response rating (0 = no effect, 100 = complete control), Kochia: 0
[1]; [16]
  Plant response rating, Kochia: 20
[1]; [17]
  Kochia plant response rating: 60
[3]; 62 g ai/ha, preemergence
  Plant response rating (0 = no effect, 100 = complete control), Goosegrass: 0
[3]; [16]
  Plant response rating, Goosegrass: 10
[3]; [17]
  Goosegrass plant response rating: 70
[4]; 62 g ai/ha, preemergence
  Plant response rating (0 = no effect, 100 = complete control), Crabgrass, Large: 0
[4]; [16]
  Plant response rating, Crabgrass, Large: 40
[4]; [18]
  Plant response rating, Crabgrass, Large: 70
[4]; [17]
  Crabgrass, Large plant response rating: 90
[8]; [19]
  Plant response rating, Foxtail, Giant: 30
[8]; [20]
  Plant response rating, Foxtail, Giant: 55
[8]; [21]
  Foxtail, Giant plant response rating: 40
[8]; [22]
  Foxtail, Giant plant response rating: 90
[5]; [16]
  Plant response rating, Velvetleaf: 30
[5]
  Velvetleaf plant response rating: 60
[6]; 62 g ai/ha, preemergence
  Plant response rating (0 = no effect, 100 = complete control), Pigweed: 30
[6]; [16]
  Plant response rating, Pigweed: 70
[6]
  Pigweed plant response rating: 100
[9]; [23]
  Barnyardgrass plant response rating: 0
[9]; [24]
  Barnyardgrass plant response rating: 0
[9]; [25]
  Barnyardgrass plant response rating: 0
[9]; [26]
  Plant response rating, Barnyardgrass: 35
[7]; 62 g ai/ha, preemergence
  Plant response rating (0 = no effect, 100 = complete control), Ragweed: 0
[7]; [16]
  Plant response rating, Ragweed: 0
[7]
  Ragweed plant response rating: 20
[10]; [27]
  Plant response rating, Rice: 0

## C=CCNC(=O)c1cccc(NC(=O)c2sc(C(C)(C)C)nc2CC)c1 [Compound 207]
[1]; [11]
  Plant response rating, Kochia: 90
[1]; [16]
  Plant response rating, Kochia: 90
[1]; [12]
  Plant response rating, Kochia: 90
[1]; [17]
  Kochia plant response rating: 95
[3]; [11]
  Plant response rating, Goosegrass: 10
[3]; [16]
  Plant response rating, Goosegrass: 60
[3]; [12]
  Plant response rating, Goosegrass: 80
[3]; [17]
  Goosegrass plant response rating: 100
[4]; [11]
  Plant response rating, Crabgrass, Large: 80
[4]; [16]
  Plant response rating, Crabgrass, Large: 90
[4]; [12]
  Plant response rating, Crabgrass, Large: 100
[4]; [17]
  Crabgrass, Large plant response rating: 100
[8]; [19]
  Foxtail, Giant plant response rating: 10
[8]; [20]
  Plant response rating, Foxtail, Giant: 50
[8]; Preemergence, 2000 g ai/ha, visual rating, 0 to 100 scale (0 no effect, 100 complete control)
  Foxtail, Giant plant response rating: 90
[8]; preemergence, 500 g ai/ha, visual injury, 0 to 100 scale (0 no effect, 100 complete control)
  Foxtail, Giant plant response rating: 75
[5]; [11]
  Plant response rating, Velvetleaf: 0
[5]; [16]
  Plant response rating, Velvetleaf: 10
[5]; [12]
  Plant response rating, Velvetleaf: 40
[5]
  Velvetleaf plant response rating: 60
[6]; [11]
  Plant response rating, Pigweed: 100
[6]; [16]
  Plant response rating, Pigweed: 100
[6]; [12]
  Plant response rating, Pigweed: 100
[6]
  Pigweed plant response rating: 100
[9]; [23]
  Barnyardgrass plant response rating: 45
[9]; 125 g ai/ha, scale 0 to 100 (0 no effect, 100 complete control)
  Barnyardgrass plant response rating: 65
[9]; [25]
  Barnyardgrass plant response rating: 75
[9]; [26]
  Plant response rating, Barnyardgrass: 85
[7]; [11]
  Plant response rating, Ragweed: 40
[7]; [16]
  Plant response rating, Ragweed: 50
[7]; [12]
  Plant response rating, Ragweed: 60
[7]
  Ragweed plant response rating: 100
[10]; 125 g ai/ha, 0 = no effect, 100 = complete control
  Rice plant response rating (0 to 100 scale): 50
[10]; 500 g ai/ha, visual rating 0-100, 0 no effect, 100 complete control
  Plant response rating, Rice: 70

## CCCN1CCc2c(NC(=O)c3cc(C(C)(C)C)nn3CC)cccc2C1=O [Compound 65]
[1]; 62 g ai/ha, preemergence
  Plant response rating (0 = no effect, 100 = complete control), Kochia: 10
[1]; [16]
  Plant response rating, Kochia: 70
[1]; [17]
  Kochia plant response rating: 90
[3]; 62 g ai/ha, preemergence
  Plant response rating (0 = no effect, 100 = complete control), Goosegrass: 0
[3]; [16]
  Plant response rating, Goosegrass: 30
[3]; [17]
  Goosegrass plant response rating: 80
[4]; 62 g ai/ha, preemergence
  Plant response rating (0 = no effect, 100 = complete control), Crabgrass, Large: 50
[4]; [16]
  Plant response rating, Crabgrass, Large: 50
[4]; [18]
  Plant response rating, Crabgrass, Large: 80
[4]; [17]
  Crabgrass, Large plant response rating: 100
[8]; [19]
  Plant response rating, Foxtail, Giant: 30
[8]; [20]
  Plant response rating, Foxtail, Giant: 55
[8]; [21]
  Foxtail, Giant plant response rating: 40
[8]; [22]
  Foxtail, Giant plant response rating: 80
[5]; [16]
  Plant response rating, Velvetleaf: 0
[5]
  Velvetleaf plant response rating: 60
[6]; 62 g ai/ha, preemergence
  Plant response rating (0 = no effect, 100 = complete control), Pigweed: 70
[6]; [16]
  Plant response rating, Pigweed: 100
[6]
  Pigweed plant response rating: 100
[9]; [23]
  Barnyardgrass plant response rating: 0
[9]; [24]
  Barnyardgrass plant response rating: 0
[9]; [25]
  Barnyardgrass plant response rating: 30
[9]; [26]
  Plant response rating, Barnyardgrass: 60
[7]; 62 g ai/ha, preemergence
  Plant response rating (0 = no effect, 100 = complete control), Ragweed: 0
[7]; [16]
  Plant response rating, Ragweed: 0
[7]
  Ragweed plant response rating: 60
[10]; [27]
  Plant response rating, Rice: 10
